Measurements: patent US4438120A, “Pyridoindolobenzodiazepine tranquilizers” (E. I. Du Pont de Nemours & Company, priority 1982, dated 1984)

system: Conditioned Avoidance Response (CAR); test: Conditioned Avoidance Response (CAR) test in mice, oral; type: in vivo, mouse (female white mice); settings: female white mice, moving average method
Description: The paradigm used for predicting tranquilizer activity was a Conditioned Avoidance Response (CAR) test in mice. Female white mice, 19-23 g, were used. The apparatus modified from Bovet, D. et al., Science, 163, 139-149 (1969), was a one-way shuttlebox with 0.4 mA scrambled electric footshock as unconditioned stimulus (US) and a 6 watt white light plus a relay buzzer as conditioned stimuli (CS). Mice were conditioned by three sets of 1-5 trials on day 1, then were fasted for 17-21 hours. The conditioned mice were tested for retention of the conditioned response on day 2, and then were dosed orally with test drug at doses such as 0, 1, 3, 9, 27 and 81 mg/kg. ED50 values (doses at which 50% of the animals would be expected to show response failure) were calculated by the moving average method [Thompson, W. R., Bact. Rev., 11, 115 (1947)].

Compared with “5-Chloro-1,2,3,4-tetrahydro-3-(3-oxobutyl)pyrido[4',3':2,3]indolo[1,7-ab][1,4]benzodiazepin-8(9H)-one [Example 52]”, `CCN1CC[C@@H]2[C@@H](C1)c1cc(Cl)cc3c1N2c1ccccc1CN3.Cl.Cl` (relative stereo) [Example 96, trans-6-Chloro-3-ethyl-1,2,3,4,4a,8,9,14a-octahydropyrido[4',3':2,3]indolo[1,7-ab][1,4]benzodiazepine, Dihydrochloride] is 130-fold lower in “Mouse CAR ED50 (avoidance ED50, dose at which 50% of the animals would be expected to show response failure)” value: 39 mg/kg for the first, 0.3 mg/kg for the second.

Going from `CN1CC[C@@H]2[C@@H](C1)c1cccc3c1N2c1ccccc1CN3` (relative stereo) [Example 97] to `CN1CC[C@@H]2[C@@H](C1)c1cccc3c1N2c1ccc(Cl)cc1CN3` (relative stereo) [Example 99], the “Mouse CAR ED50 (avoidance ED50, dose at which 50% of the animals would be expected to show response failure)” value falls from 9.0 mg/kg to 1.4 mg/kg (6.4-fold).

First: CN1CC[C@@H]2[C@@H](C1)c1cc(Cl)cc3c1N2c1ccc(Cl)cc1CN3 (relative stereo) [Example 100]
Second: Cc1ccc2c(c1)CNc1cc(Cl)cc3c1N2[C@@H]1CCN(C)C[C@@H]31 (relative stereo) [Example 101]
The “Mouse CAR ED50 (avoidance ED50, dose at which 50% of the animals would be expected to show response failure)” value of the first is 3-fold higher: 2.1 mg/kg for the first, 0.69 mg/kg for the second.

Going from `CCN1CC[C@@H]2[C@@H](C1)c1c(Cl)ccc3c1N2c1ccccc1CN3` (relative stereo) [Example 102] to `CCN1CC[C@@H]2[C@@H](C1)c1cc(C(F)(F)F)cc3c1N2c1ccccc1CN3` (relative stereo) [Example 103], the “Mouse CAR ED50 (avoidance ED50, dose at which 50% of the animals would be expected to show response failure)” value falls from 5.8 mg/kg to 1.2 mg/kg (4.8-fold).

Going from `CCN1CC[C@@H]2[C@@H](C1)c1cccc3c1N2c1ccccc1CN3C` (relative stereo) [Example 104] to `CCN1CC[C@@H]2[C@@H](C1)c1cccc3c1N2c1ccc(Cl)cc1CN3` (relative stereo) [Example 105], the “Mouse CAR ED50 (avoidance ED50, dose at which 50% of the animals would be expected to show response failure)” value falls from 41 mg/kg to 24 mg/kg (1.7-fold).

Going from `CCN1CC[C@@H]2[C@@H](C1)c1cc(Cl)cc3c1N2c1ccccc1CN3C` (relative stereo) [Example 106] to `CCN1CC[C@@H]2[C@@H](C1)c1cc(C(F)(F)F)cc3c1N2c1ccccc1CN3C` (relative stereo) [Example 107], the “Mouse CAR ED50 (avoidance ED50, dose at which 50% of the animals would be expected to show response failure)” value rises from 5.8 mg/kg to 10.1 mg/kg (1.7-fold).

`CCCCCCN1CC[C@@H]2[C@@H](C1)c1cc(Cl)cc3c1N2c1ccc(C)cc1CN3` (relative stereo) [Example 108] and `Clc1ccc2c(c1)CNc1cccc3c1N2[C@@H]1CCN(CC2CC2)C[C@@H]31` (relative stereo) [Example 109] are within 1.5-fold of each other in “Mouse CAR ED50 (avoidance ED50, dose at which 50% of the animals would be expected to show response failure)” value: 2.5 mg/kg for the first, 2.1 mg/kg for the second.

Compared with `FC(F)(F)c1cc2c3c(c1)[C@@H]1CN(CC4CC4)CC[C@H]1N3c1ccccc1CN2` (relative stereo) [Example 110], `c1ccc2c(c1)CNc1cccc3c1N2[C@@H]1CCN(CC2CCCCC2)C[C@@H]31` (relative stereo) [Example 111] is 4.7-fold lower in “Mouse CAR ED50 (avoidance ED50, dose at which 50% of the animals would be expected to show response failure)” value: 15.6 mg/kg for the first, 3.3 mg/kg for the second.

First: CN1Cc2ccccc2N2c3c(cccc31)[C@@H]1CN(Cc3ccccc3)CC[C@H]12 (relative stereo) [Example 112]
Second: Cc1ccc2c(c1)CNc1cc(Cl)cc3c1N2[C@@H]1CCN(CCc2ccccc2)C[C@@H]31 (relative stereo) [Example 113]
The “Mouse CAR ED50 (avoidance ED50, dose at which 50% of the animals would be expected to show response failure)” value of the first is 1.9-fold higher: 6.8 mg/kg for the first, 3.5 mg/kg for the second.

Compared with `Clc1ccc2c(c1)CNc1cccc3c1N2[C@@H]1CCN(CCc2ccccc2)C[C@@H]31` (relative stereo) [Example 114], `O=C1Nc2cccc3c4c(n(c23)-c2ccccc21)CCNC4` [Example 2, 1,2,3,4-tetrahydropyrido[4',3':2,3]indolo[1,7-ab][1,4]benzodiazepin-9(8H)-one] is 7.5-fold higher in “Mouse CAR ED50 (avoidance ED50, dose at which 50% of the animals would be expected to show response failure)” value: 5.2 mg/kg for the first, 39 mg/kg for the second.

Compared with `O=C1Nc2ccc(Cl)c3c4c(n(c23)-c2ccccc21)CCNC4` [Example 3], `O=C1Nc2cc(Cl)cc3c4c(n(c23)-c2ccccc21)CCNC4` [Example 4] is 1.6-fold lower in “Mouse CAR ED50 (avoidance ED50, dose at which 50% of the animals would be expected to show response failure)” value: 45 mg/kg for the first, 29 mg/kg for the second.

Going from `O=C1Nc2cc(C(F)(F)F)cc3c4c(n(c23)-c2ccccc21)CCNC4` [Example 5] to `Cc1ccc2c(c1)C(=O)Nc1cccc3c4c(n-2c13)CCNC4` [Example 6], the “Mouse CAR ED50 (avoidance ED50, dose at which 50% of the animals would be expected to show response failure)” value falls from 81 mg/kg to 24 mg/kg (3.4-fold).

`O=C1Nc2cccc3c4c(n(c23)-c2ccc(Cl)cc21)CCNC4` [Example 7] and `CN1CCc2c(c3c(Cl)ccc4c3n2-c2ccccc2C(=O)N4)C1` [Example 10] are within 1.5-fold of each other in “Mouse CAR ED50 (avoidance ED50, dose at which 50% of the animals would be expected to show response failure)” value: 25 mg/kg for the first, 19.7 mg/kg for the second.

First: CN1CCc2c(c3cc(Cl)cc4c3n2-c2ccccc2C(=O)N4)C1 [Example 11]
Second: CN1CCc2c(c3cccc4c3n2-c2ccc(Cl)cc2C(=O)N4)C1 [Example 12]
The “Mouse CAR ED50 (avoidance ED50, dose at which 50% of the animals would be expected to show response failure)” value of the first is 5.6-fold higher: 67 mg/kg for the first, 12 mg/kg for the second.

Compared with `Cc1ccc2c(c1)C(=O)Nc1cc(Cl)cc3c4c(n-2c13)CCN(C)C4` [Example 13], `CN1CCc2c(c3cc(Cl)cc4c3n2-c2ccc(Cl)cc2C(=O)N4)C1` [Example 14] is 3-fold higher in “Mouse CAR ED50 (avoidance ED50, dose at which 50% of the animals would be expected to show response failure)” value: 10.5 mg/kg for the first, 31 mg/kg for the second.

`Cc1ccc2c(c1)C(=O)Nc1cc(Cl)cc3c4c(n-2c13)CCN(CCc1ccccc1)C4` [Example 16] and `CN1CCc2c(c3cc(C(F)(F)F)cc4c3n2-c2ccc(Cl)cc2C(=O)N4)C1` [Example 17] are within 1.5-fold of each other in “Mouse CAR ED50 (avoidance ED50, dose at which 50% of the animals would be expected to show response failure)” value: 47 mg/kg for the first, 37 mg/kg for the second.

`CC(C)N1CCc2c(c3cccc4c3n2-c2ccccc2C(=O)N4)C1` [Example 31, 1,2,3,4-Tetrahydro-3-(2-propyl)pyrido[4',3':2,3]indolo[1,7-ab][1,4]benzodiazepin-9(8H)-one] and `CCN1CCc2c(c3cccc4c3n2-c2ccccc2C(=O)N4)C1` [Example 32] are within 1.5-fold of each other in “Mouse CAR ED50 (avoidance ED50, dose at which 50% of the animals would be expected to show response failure)” value: 23 mg/kg for the first, 27 mg/kg for the second.

Going from `CCCN1CCc2c(c3c(Cl)ccc4c3n2-c2ccccc2C(=O)N4)C1` [Example 33] to `CCCN1CCc2c(c3cc(Cl)cc4c3n2-c2ccccc2C(=O)N4)C1` [Example 34], the “Mouse CAR ED50 (avoidance ED50, dose at which 50% of the animals would be expected to show response failure)” value falls from 21.7 mg/kg to 13.6 mg/kg (1.6-fold).

`CCCCCCN1CCc2c(c3cccc4c3n2-c2ccccc2C(=O)N4)C1` [Example 35] and `CCCCCCN1CCc2c(c3c(Cl)ccc4c3n2-c2ccccc2C(=O)N4)C1` [Example 36] are within 1.5-fold of each other in “Mouse CAR ED50 (avoidance ED50, dose at which 50% of the animals would be expected to show response failure)” value: 56.2 mg/kg for the first, 52 mg/kg for the second.

Going from `CCCCCCN1CCc2c(c3cc(Cl)cc4c3n2-c2ccccc2C(=O)N4)C1` [Example 37] to `O=C1Nc2cccc3c4c(n(c23)-c2ccccc21)CCN(CC1CCCCC1)C4` [Example 38], the “Mouse CAR ED50 (avoidance ED50, dose at which 50% of the animals would be expected to show response failure)” value rises from 11.8 mg/kg to 56.2 mg/kg (4.8-fold).

First: O=C(CCCN1CCc2c(c3cc(Cl)cc4c3n2-c2ccccc2C(=O)N4)C1)c1ccc(F)cc1 [Example 40]
Second: CCCCCCN1CCc2c(c3cc(Cl)cc4c3n2-c2ccc(C)cc2C(=O)N4)C1 [Example 42]
The “Mouse CAR ED50 (avoidance ED50, dose at which 50% of the animals would be expected to show response failure)” value of the first is 3.4-fold lower: 47 mg/kg for the first, 162 mg/kg for the second.

First: Cl.O=C(O)CCCN1CCc2c(c3cc(Cl)cc4c3n2-c2ccccc2C(=O)N4)C1 [Example 51, 6-Chloro-1,2,8,9-tetrahydro-9-oxopyrido[4',3':2,3]indolo[1,7-ab][1,4]benzodiazepin-3(4H)-butanoic acid hydrochloride]
Second: Clc1cc2c3c(c1)c1c(n3-c3ccccc3CN2)CCNC1 [Example 59, 6-Chloro-1,2,3,4,8,9-hexahydropyrido[4',3':2,3]indolo[1,7-ab][1,4]benzodiazepine]
The “Mouse CAR ED50 (avoidance ED50, dose at which 50% of the animals would be expected to show response failure)” value of the first is 6.2-fold higher: 56.2 mg/kg for the first, 9.0 mg/kg for the second.

With `O=C1Nc2cccc3c4c(n(c23)-c2cc(Cl)ccc21)CCNC4` [Example 8] the “Mouse CAR ED50 (avoidance ED50, dose at which 50% of the animals would be expected to show response failure)” value was over 54 mg/kg.
For `Cc1ccc2c(c1)C(=O)Nc1ccc(Cl)c3c4c(n-2c13)CCNC4` [Example 9], the “Mouse CAR ED50 (avoidance ED50, dose at which 50% of the animals would be expected to show response failure)” value was over 81 mg/kg.
In the case of `CN1CCc2c(c3cc(C(F)(F)F)cc4c3n2-c2ccccc2C(=O)N4)C1` [Example 18], the “Mouse CAR ED50 (avoidance ED50, dose at which 50% of the animals would be expected to show response failure)” value is reported as over 81 mg/kg.
In the case of `Cc1ccc2c(c1)C(=O)Nc1ccc(Cl)c3c4c(n-2c13)CCN(C)C4` [Example 19], the “Mouse CAR ED50 (avoidance ED50, dose at which 50% of the animals would be expected to show response failure)” value is reported as over 81 mg/kg.
For `Cc1ccc2c(c1)C(=O)Nc1cc(Cl)cc3c4c(n-2c13)CCNC4` [Example 20], the “Mouse CAR ED50 (avoidance ED50, dose at which 50% of the animals would be expected to show response failure)” value was over 81 mg/kg.
`O=C1Nc2cc(C(F)(F)F)cc3c4c(n(c23)-c2ccc(Cl)cc21)CCNC4` [Example 21] was tested, and the “Mouse CAR ED50 (avoidance ED50, dose at which 50% of the animals would be expected to show response failure)” value was over 81 mg/kg.
For `CCCCCCN1CCc2c(c3c(Cl)ccc4c3n2-c2ccc(C)cc2C(=O)N4)C1` [Example 41], the “Mouse CAR ED50 (avoidance ED50, dose at which 50% of the animals would be expected to show response failure)” value was over 81 mg/kg.
`CCCCCCN1CCc2c(c3cccc4c3n2-c2ccc(Cl)cc2C(=O)N4)C1` [Example 43] was tested, and the “Mouse CAR ED50 (avoidance ED50, dose at which 50% of the animals would be expected to show response failure)” value was over 81 mg/kg.
In the case of `CCCCCCCCCCN1CCc2c(c3cc(Cl)cc4c3n2-c2ccccc2C(=O)N4)C1` [Example 44], the “Mouse CAR ED50 (avoidance ED50, dose at which 50% of the animals would be expected to show response failure)” value is reported as over 162 mg/kg.
